Source: EP4050002A1, “ANTI-PROLIFERATIVE AGENTS” (First Health Pharmaceuticals B.V., priority 2021, dated 2022)
≈ marks a conversion by molar mass, not a printed value. Structures can show the parent of a compound that is named as a salt. Where two headings read alike, the source gives them in different places. Values belong to the molecule of their own block, whether it stands above or below them.

Assays:
DDX3X = DDX3X (Homo sapiens, UniProt O00571); experiment: nanoDSF enzymatic binding (melting temperature shift); set-up: human DDX3X (residues 132-607, UniProtID: 000571, produced by Proteros GmbH); purchased Proteros GmbH; settings: DDX3X with AMPPNP 100 µM, no compound
Text: The binding of compounds to DDX3X have been assessed by nanoDSF analysis (NanoTemper Technologies GmbH, Flößergasse 4, 81369 München, Germany). NanoDSF technology is a Differential Scanning Fluorimetry method which measures the protein stability with high resolution without the need of a dye. In particular it measures the changes of the intrinsic tryptophan fluorescence at 330 and 350 nm and it is used to determine the melting temperature of a protein. In the folded state the residues of tryptophan are buried in the hydrophobic core. During denaturation the residues are more exposed and the fluorescence changes in both intensity and wavelength. In a typical experiment, the protein is mixed with the ligand in the reaction buffer and transferred into a capillary. The fluorescence is monitored over temperature gradient between 20 and 95°C with an increment of 2.5°C per minute. The interaction of the ligand to the folded state of the protein shifts the protein melting temperature (Tm) at higher or lower temperature.
Experimental conditions: the experiments were conducted with the device Prometheus NT.48 (NanoTemper Technologies GmbH), the enzyme used was the human DDX3X (residues 132-607, UniProtID: 000571, produced by Proteros GmbH). The assessed compounds were dissolved in pure DMSO adequate to obtain a concentration of compound of 100µM and DMSO 1% (v:v) in final solution. Reaction buffer for DDX3X was 20 mM HEPES, pH 7.5, 0.5 mM TCEP, 500 mM NaCl, 10% (v:v) Glycerin, with a final reaction volume of 10 µL and a final DMSO concentration of 1% (v:v). The reaction was performed in "High sensitivity capillaries" in the range of 20-95°C with a heating rate of 2.5°C/min, with an incubation time of 60 minutes.
• 1) Add appropriate volume of target enzyme in reaction buffer • 2) Add compound(s) in 100% DMSO (1% final DMSO conc.) • 3) Fill the capillary • 4) Measure fluorescence
The assay development was performed with DDX3X protein alone showing a Tm at 54.6 °C.
Binding of compound 5 was assessed with the NanoDSF technique, evaluating the association of the aforementioned compound with APO DDX3X and in presence of a competitor for the ATP binding site, Adenylyl imidodiphosphate (AMPPNP) to assess competition of compound 5 for the DDX3X ATP binding site. Table 6. Final protein and compound concentrations in the various assay setup:
All the measures were performed in triplicate and the average (Mean Tm) and standard deviation (SD) were calculated with the following equations: [formula] and SD = sqrt((∑((Tm−Mean Tm))^2)/(n−1)) [formula]
A change of 5xSD from the 1% DMSO control mean is considered to be a significant Tm change. Test of DDX3X with 1% DMSO was performed to obtain the reference melting temperature of the protein alone. Compounds are considered as binders if the Tm shifts by >= 5 times the standard deviation of the control (protein in the absence of compound). Table 7. DDX3X melting temperatures (Tm) at various experimental conditions

MDAMB231 cell line = experiment: Cytotoxicity, cell count method; type: cell-based, human; settings: MDAMB231, 72 hours of incubation
Experimental: (§1) The anti-tumor activity of the compounds of the present invention was evaluated as the effect on the proliferation and survival of tumor cells by counting the number of living cells in presence or absence of the compounds ("cell count method"), and as the effect on the viability and metabolic activity of the cells, by using particular substrates that are converted by cellular enzymes into coloured or luminescent products, proportionally with metabolic activity and state of the cell, such as the MTS tetrazolium compound ("MTS method") or luciferin ("ATP-based method") respectively.
(§2) Cells were seeded at 3 to 5 x 10^4 cells/well density depending on cell lines and maintained at 37°C in 5% CO2. After 24 hours cells were treated with ascending concentrations of the investigational compounds and the reference (5-fluoro-Uracyl) in a range from 0 to 100 µM. Compounds were dissolved in DMSO which final concentration in each well was 0.5% v:v. After 72 h of incubation with compounds, the cells were detached with trypsin and re-suspended in 1 ml of complete medium; the cell number was evaluated using a Z2 Coulter Counter ("cell count method") (Attallah and Johnson, A simple highly sensitive methods for the determination of cell viability using an electronic particle analyzer, Coulter counter J. Immunol. Methods. 1981, 41, 155; Leonardi et al., Activated kinase screening identifies the IKBKE oncogene as a positive regulator of autophagy. Autophagy, 2019, 15, 312). Alternatively, after the 72 hours of incubation with compounds, the MTS solution (CellTiter 96® AQueous One Solution Cell Proliferation Assay) is added to each well and absorbance at 490 nm wavelength is read after 2 hours of incubation ("MTS method"). Results in Tables 8-13, 17, 18 were obtained with the cell count method. Results in Tables 14-15 were obtained with the MTS method. Results in Table 16 were obtained with ATP-based method.

A549 Red-FLuc = experiment: Cytotoxicity, cell count method; type: cell-based; settings: Homo sapiens, 72 hours of incubation
Experimental: as §1, §2

[1] = Kinetic solubility (turbidimetry); type: physicochemical; settings: for solubility at 2 h: 37 °C, kinetic from dmso stock; for Absorbance at 620nm: 2 h
Experimental: Kinetic solubility was assessed in phosphate buffered saline at pH 7.4 according to the turbidimetry method. Turbidity (precipitation) was measured by absorbance at 620 nm following incubation at 37°C for 2 h. Stock solution of compounds in DMSO were prepared to produce the desired final range of concentrations, then these were added to the buffer to obtain the final test compound concentrations (1 µM, 3 µM, 10 µM, 30 µM, 100 µM), with a final DMSO concentration 1%). Solubility was estimated from the concentration of tested compound that produced a significant increase in absorbance (≥ 0.003 OD at 620 nm) above vehicle control (1% DMSO in water). Miconazole, Reserpine and Propranolol were used as controls.

Chain of DDX3X (O00571 132-607): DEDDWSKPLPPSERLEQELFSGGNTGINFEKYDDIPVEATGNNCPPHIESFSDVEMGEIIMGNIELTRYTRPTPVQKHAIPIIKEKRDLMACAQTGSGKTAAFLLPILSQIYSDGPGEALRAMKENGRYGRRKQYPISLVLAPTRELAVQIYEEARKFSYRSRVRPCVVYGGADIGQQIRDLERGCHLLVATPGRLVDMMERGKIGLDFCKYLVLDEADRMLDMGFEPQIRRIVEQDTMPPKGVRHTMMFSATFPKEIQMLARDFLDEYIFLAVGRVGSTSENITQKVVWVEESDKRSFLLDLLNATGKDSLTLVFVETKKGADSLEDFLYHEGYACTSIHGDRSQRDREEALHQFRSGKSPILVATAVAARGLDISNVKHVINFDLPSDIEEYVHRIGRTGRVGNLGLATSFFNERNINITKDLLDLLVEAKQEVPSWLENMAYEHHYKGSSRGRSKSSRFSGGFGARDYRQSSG

SMILES: Nc1ncnc2c1ncn2[C@@H]1O[C@H](COP(=O)(O)OP(=O)(O)NP(=O)(O)O)[C@@H](O)[C@H]1O [AMPPNP, Adenylyl imidodiphosphate, reference compound]
Tm (DDX3X): 54.7 °C
effect on Tm upon binding (DDX3X): no significant effect on Tm

SMILES: CCCCc1noc(-c2ccc(-c3nnc(-c4cccc(Cl)c4F)o3)cc2)n1 [Compound 1, 3-Butyl-5-(4-(5-(3-chloro-2-fluorophenyl)-1,3,4-oxadiazol-2-yl)phenyl)-1,2,4-oxadiazole]
IC50 (MDAMB231 cell line; Homo sapiens, MDA-MB-231, 72 h): 1000 µM

SMILES: CCCCc1cn(-c2ccc(-c3nnc(-c4ccccc4)o3)cc2)nn1 [Compound 2, 2-(4-(4-butyl-1H-1,2,3-triazol-1-yl)phenyl)-5-phenyl-1,3,4-oxadiazole]
IC50 (MDAMB231 cell line; Homo sapiens, MDA-MB-231, 72 h): 8.11 µM

SMILES: CCCCc1cn(-c2ccc(-c3nnc(-c4ccccc4)o3)cc2)nn1 [Compound 3, 2-(4-(4-butyl-1H-1,2,3-triazol-1-yl)phenyl)-5-phenyl-1,3,4-oxadiazole]
IC50 (MDAMB231 cell line): 6.07 µM

SMILES: CCCCc1cn(-c2ccc(-c3nnc(-c4ccccc4C)o3)cc2)nn1 [Compound 4, 2-(4-(4-butyl-1H-1,2,3-triazol-1-yl)phenyl)-5-(o-tolyl)-1,3,4-oxadiazole]
IC50 (MDAMB231 cell line; Homo sapiens, MDA-MB-231, 72 h): 38.9 µM

SMILES: CCCCc1cn(-c2ccc(-c3nnc(-c4cc(C(C)C)ccc4C)o3)cc2)nn1 [Compound 6, 2-(4-(4-butyl-1H-1,2,3-triazol-1-yl)phenyl)-5-(5-isopropyl-2-methylphenyl)-1,3,4-oxadiazole]
IC50 (MDAMB231 cell line; Homo sapiens, MDA-MB-231, 72 h): 34.6 µM

SMILES: CCCCc1cn(-c2ccc(-c3nnc(-c4cccc5cnccc45)o3)cc2)nn1 [Compound 7, 2-(4-(4-butyl-1H-1,2,3-triazol-1-yl)phenyl)-5-(isoquinolin-5-yl)-1,3,4-oxadiazole]
IC50 (MDAMB231 cell line; Homo sapiens, MDA-MB-231, 72 h): 216 µM

SMILES: CCCCc1cn(-c2ccc(-c3nnc(-c4ccccc4OC(F)F)o3)cc2)nn1 [Compound 8, 2-(4-(4-butyl-1H-1,2,3-triazol-1-yl)phenyl)-5-(2-(difluoromethoxy)phenyl)-1,3,4-oxadiazole]
IC50 (MDAMB231 cell line; Homo sapiens, MDA-MB-231, 72 h): 1000 µM

SMILES: CCCCc1cn(-c2ccc(-c3nnc(-c4ccccc4F)o3)cc2)nn1 [Compound 9, 2-(4-(4-butyl-1H-1,2,3-triazol-1-yl)phenyl)-5-(2-fluorophenyl)-1,3,4-oxadiazole]
IC50 (MDAMB231 cell line; Homo sapiens, MDA-MB-231, 72 h): 43.1 µM

SMILES: CCCCc1cn(-c2ccc(-c3nnc(-c4ccc(C5CCNCC5)cc4)o3)cc2)nn1 [Compound 19, 2-(4-(4-butyl-1H-1,2,3-triazol-1-yl)phenyl)-5-(4-(piperidin-4-yl)phenyl)-1,3,4-oxadiazole hydrochloride]
IC50 (A549 Red-FLuc): 1.7 µM

SMILES: CCCCc1cn(-c2ccc(-c3nnc(-c4cccc(OC5CCCC5)c4)o3)cc2)nn1 [Compound 22, 2-(4-(4-butyl-1H-1,2,3-triazol-1-yl)phenyl)-5-(3-(cyclopentyloxy)phenyl)-1,3,4-oxadiazole]
IC50 (A549 Red-FLuc): 3.42 µM

solubility at 2 h ([1]; pH 7.4, aqueous buffer): 10 to 30 µM (≈ 4.16 to 12.5 µg/mL)
Absorbance at 620nm ([1]; 1 µM, pH 7.4): 0.037
Absorbance at 620nm ([1]; 3 µM, pH 7.4): 0.037
Absorbance at 620nm ([1]; 10 µM, pH 7.4): 0.037
Absorbance at 620nm ([1]; 30 µM, pH 7.4): 0.044
Absorbance at 620nm ([1]; 100 µM, pH 7.4): 0.053
SMILES: Clc1ccc(COC(Cn2ccnc2)c2ccc(Cl)cc2Cl)c(Cl)c1 (stereo not drawn) [Miconazole]

SMILES: CC(C)NCC(O)COc1cccc2ccccc12 (stereo not drawn) [Propranolol]
solubility at 2 h ([1]; aqueous buffer, kinetic solubility, PBS pH 7.4, read-out: solubility): > 100 µM
Absorbance at 620nm ([1]; conc. 1 µM, PBS pH 7.4, 37°C): 0.038
Absorbance at 620nm ([1]; conc. 3 µM, PBS pH 7.4, 37°C): 0.037
Absorbance at 620nm ([1]; conc. 10 µM, PBS pH 7.4, 37°C): 0.039
Absorbance at 620nm ([1]; conc. 30 µM, PBS pH 7.4, 37°C): 0.038
Absorbance at 620nm ([1]; conc. 100 µM, PBS pH 7.4, 37°C): 0.037

solubility at 2 h ([1]; pH 7.4, aqueous buffer): 30 to 100 µM (≈ 18.3 to 60.9 µg/mL)
Absorbance at 620nm ([1]; 1 µM, pH 7.4): 0.037
Absorbance at 620nm ([1]; 3 µM, pH 7.4): 0.037
Absorbance at 620nm ([1]; 10 µM, pH 7.4): 0.037
Absorbance at 620nm ([1]; 30 µM, pH 7.4): 0.040
Absorbance at 620nm ([1]; 100 µM, pH 7.4): 0.058
SMILES: COC(=O)[C@H]1[C@H]2C[C@@H]3c4[nH]c5cc(OC)ccc5c4CCN3C[C@H]2C[C@@H](OC(=O)c2cc(OC)c(OC)c(OC)c2)[C@@H]1OC [Reserpine]
